Data reported in article PMC2962730 (Journal of neurochemistry, 2010).
Positions count from the first letter of the chain named. “Also recorded” adds a separate entry of the source.

Experiments:
hVAChT Y60A = target: T1, hVAChT Y60A (Homo sapiens, UniProt Q16572, Y60A); experiment: [3H]vesamicol saturation binding; conditions: pH 7.4
T1 sequence (Q16572 1-532 Y60A): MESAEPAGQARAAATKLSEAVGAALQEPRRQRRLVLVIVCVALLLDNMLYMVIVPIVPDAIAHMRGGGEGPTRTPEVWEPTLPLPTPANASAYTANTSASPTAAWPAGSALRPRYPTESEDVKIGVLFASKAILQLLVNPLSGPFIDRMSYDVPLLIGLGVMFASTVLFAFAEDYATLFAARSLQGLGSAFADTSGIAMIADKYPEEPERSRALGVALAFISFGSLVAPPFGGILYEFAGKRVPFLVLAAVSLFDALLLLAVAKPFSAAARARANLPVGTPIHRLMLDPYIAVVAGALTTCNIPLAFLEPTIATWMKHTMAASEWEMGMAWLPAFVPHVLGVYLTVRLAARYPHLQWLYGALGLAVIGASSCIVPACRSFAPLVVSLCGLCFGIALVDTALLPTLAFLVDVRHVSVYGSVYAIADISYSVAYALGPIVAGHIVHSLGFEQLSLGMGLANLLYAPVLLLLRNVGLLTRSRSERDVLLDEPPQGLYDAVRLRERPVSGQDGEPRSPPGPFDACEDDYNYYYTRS

[1] = test system: rat VAChT (rVAChT) W331 mutants; conditions: mutations of W331 in rVAChT; ref Ojeda et al. 2004; cited from earlier work
hVAChT W325H = target: T2, hVAChT W325H (Homo sapiens, UniProt Q16572, W325H); experiment: [3H]vesamicol saturation binding; conditions: pH 7.4
T2 sequence (Q16572 1-532 W325H): T1 sequence (Q16572 1-532 Y60A) with A60Y, W325H

hVAChT W315A = target: T3, hVAChT W315A (Homo sapiens, UniProt Q16572, W315A); experiment: ACh equilibrium binding by competition against [3H]vesamicol
T3 sequence (Q16572 1-532 W315A): T1 sequence (Q16572 1-532 Y60A) with A60Y, W315A

hVAChT M316A = target: T4, hVAChT M316A (Homo sapiens, UniProt Q16572, M316A); experiment: [3H]ACh transport; format: biochemical
T4 sequence (Q16572 1-532 M316A): T1 sequence (Q16572 1-532 Y60A) with A60Y, M316A

hVAChT wild-type = target: T5, hVAChT wild-type (Homo sapiens, UniProt Q16572); experiment: ACh equilibrium binding by competition against [3H]vesamicol; conditions: WT hVAChT; pH 7.4
T5 sequence (Q16572 1-532): T1 sequence (Q16572 1-532 Y60A) with A60Y

O[C@@H]1CCCC[C@H]1N1CCC(c2ccccc2)CC1 (racemic) [vesamicol, ( )-trans-2-(4-phenylpiperidino)cyclohexanol]
Bmax, maximal specific [3H]vesamicol binding (VAChT expression level) (hVAChT Y60A): 31 ± 2 pmol/mg | effect on vesamicol affinity [1]: no loss in affinity for vesamicol; also recorded: without affecting vesamicol affinity | Bmax, maximal specific [3H]vesamicol binding (VAChT expression level) (hVAChT W325H): 22 ± 1 pmol/mg

CC(=O)OCC[N+](C)(C)C [ACh, acetylcholine]
Kd (hVAChT W315A): 11 ± 4 mM | FHA, fraction of the ACh sites that have high affinity (hVAChT W315A; W315A hVAChT, pH 7.4): 0.84 ± 0.16 | Vmax/Bmax, ACh transport normalized to Bmax (hVAChT M316A; pH 7.4): 8.2 ± 1.0 min⁻¹ | Km (hVAChT M316A; read-out: KM, Michaelis-Menten constant for ACh transport, pH 7.4): 1500 ± 300 µM | FHA, fraction of the ACh sites that have high affinity (hVAChT wild-type): 0.82 ± 0.04
